Positions of bridges follow the written chain, without caps; N, C: chain ends. Non-standard residues stand in square brackets, D forms with d. Residues, ends and D or L forms follow the SMILES beside them. NMePhe(4-NO2) = CN[C@@H](Cc1ccc([N+](=O)[O-])cc1)C(=O)O; Phe(4-NO2) = N[C@@H](Cc1ccc([N+](=O)[O-])cc1)C(=O)O; 2Nal = N[C@@H](Cc1ccc2ccccc2c1)C(=O)O; d2Nal = N[C@H](Cc1ccc2ccccc2c1)C(=O)O; Abu = CC[C@H](N)C(=O)O
What was measured:
[1] = target: T1, rat somatostatin receptor subtype 2 (SSTR2) (Rattus norvegicus, UniProt P30680); assay: Yeast assay, somatostatin antagonist activity (zone of no growth in presence of S-14); type: cell-based; parameters: key: 1 is minimum antagonist activity; 5 is maximum antagonist activity; -: When no activity is observed, the result is indicated by a dash; settings: rating on a scale of 1-5 from zone of no growth; 5µL of 1 mg/mL S-14 added to each plate; S. Cerevisiae LY364
T1 construct: expressed in transfected cells; host or cells: Saccharomyces cerevisiae LY364
Experimental: To evaluate the somatostatin antagonist activity of a test compound, the above procedure is followed except on day 3, 5µL of 1 mg/mL of somatostatin, S-14, is added to each plate, before applying the test compound. If the test compound is an antagonist of somatostatin, then a zone of no growth will appear within the cell growth zone. This zone of no growth is measured and the test compound is given an antagonist rating on a scale of 1-5 wherein 1 is minimum antagonist activity and 5 is maximum antagonist activity.
The results are shown in Table I. When no activity is observed, the result is indicated by a dash.
(§1) • 1) Inoculate 2 mL SCD-ura-trp liquid medium in Falcon 2051 tube with a single colony taken from a plate containing LY364 (MATa ura3-52 leu2 his3 trp1 lys2 ade2 far1:: LYS2 fus1:: FUS1-HIS3 gpal::hisG sst2::ADE2 bearing the SSTR2 expression plasmid, pJH2, and the G protein expression plasmid, pLP82)cells. • 2) Incubate overnight in a roller drum at 30°C.
(§2) Day 2. • 1) Harvest the cells by centrifugation (3 krpm, 5 min, room temp). • 2) Re-suspend with 5 mL of sterile water. • 3) Harvest again by centrifugation. • 4) Re-suspend in 5 mL SCL-ura-trp liquid medium. • 5) Incubate for 6 hours in a roller drum at 30°C. • 6) Harvest the cells again by centrifugation. • 7) Re-suspend in 5 mL SCG-ura-trp liquid medium. • 8) Incubate overnight in a roller drum at 30°C.
(§3) Day 3. • 1) Autoclave SCG-ura-trp-his pH 6.8 agar medium. • 2) Cool to 55°C in water bath. • 3) Add 1 mL of LY364 culture to 1 liter of agar medium. • 4) Stir vigorously for 1 min. • 5) Pour 150 mL each into five 500 cm^2 plates. • 6) Allow to cool on level surface. • 7) Apply test compound.
(§4) On day 3, add 5µL 1 mg/mL S-14 to each plate. Day 5. Begin checking plates for growth around applied compounds. Day 7. Growth in response to somatostatin should be readily observable. Rate extent of growth or inhibition of growth according to rating scale described hereinabove.

[2] = target: T1, rat somatostatin receptor subtype 2 (SSTR2); assay: Yeast assay, somatostatin agonist activity (growth zone of modified yeast cells on histidine-free agar); type: cell-based; settings: rating on a scale of 1-5 from zone of growing cells; S. Cerevisiae LY364
Experimental: In this evaluation, yeast cells which have been specifically modified to functionally express rat somatostatin receptor subtype 2 (SSTR2) on their cell surfaces are used. S. Cerevisiae LY364 cells are plated in a standard synthetic agar medium which lacks histidine. In the absence of a somatostatin receptor agonist, the auxotrophic (his3) cells are unable to grow. In the presence of somatostatin, or a somatostatin agonist, the expression of an enzyme (His3p: imidazole-glycerol phosphate dehydratase) which is essential for histidine biosynthesis is induced. The cells become competent to produce histidine, resulting in a zone of growing cells around the applied test compound. The zone is measured and the test compound is given an agonist rating on a scale of 1-5 wherein 1 is minimum agonist activity and 5 is maximum agonist activity.
SCD-ura-trp: • 1) To 500 mL water add: • 1.7 g YNB without amino acids and (NH4)2SO4 • 5.0 g (NH4)2SO4 • 0.7 g CSM-ura-trp • 2) To additional 500 mL water add: 20 g Dextrose • 3) Autoclave separately. Mix.
SCL-ura-trp: • 1) To 500 mL water add: • 1.7 g YNB without amino acids and (NH4)2SO4 • 5.0 g (NH4)2SO4 • 0.7 g CSM-ura-trp • 2) To additional 500 mL water add: 30 mL Lactic Acid • 3) Autoclave separately. Mix.
SCG-ura-trp: • 1) To 500 mL water add: • 1.7 g YNB without amino acids and (NH4)2SO4 • 5.0 g (NH4)2SO4 • 0.7 g CSM-ura-trp • 2) To additional 500 mL water add: 30 g D-Galactose • 3) Autoclave separately. Mix.
SCG-ura-trp-his agar medium, pH 6.8: • 1) To 500 mL water add: • 1.7 g YNB without amino acids and (NH4)2SO4 • 5.0 g (NH4)2SO4 • 0.7 g CSM-ura-trp-his • Stirring Bar • 2) Adjust pH to 6.8-6.9 by dropwise addition of conc. NH4OH • 3) To additional 500 mL water add: 30 g D-Galactose, 20 g Agar • 4) Autoclave separately. • 5) Stir to mix thoroughly. • 6) Equilibrate temperature to 55°C. YNB without amino acids and (NH4)2SO4, CSM-ura-trp, and CSM-ura-trp-his are manufactured by Bio101. Ammonium sulfate ((NH4)2SO4), Dextrose (D-glucose), D-Galactose, and Lactic Acid are manufactured by Sigma.
as §1, §2, §3, §4

T1 sequence (P30680 whole entry): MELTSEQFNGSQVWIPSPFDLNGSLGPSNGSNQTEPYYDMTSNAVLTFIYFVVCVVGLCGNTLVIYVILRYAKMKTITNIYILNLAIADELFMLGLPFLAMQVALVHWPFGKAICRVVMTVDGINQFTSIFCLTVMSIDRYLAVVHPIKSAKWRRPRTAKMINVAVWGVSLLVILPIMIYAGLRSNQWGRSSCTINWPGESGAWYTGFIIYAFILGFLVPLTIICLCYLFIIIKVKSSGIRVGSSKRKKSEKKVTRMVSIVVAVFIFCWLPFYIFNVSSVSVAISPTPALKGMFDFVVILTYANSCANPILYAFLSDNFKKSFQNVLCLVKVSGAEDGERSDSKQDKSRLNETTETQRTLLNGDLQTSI

SMILES | Yeast Assay Antagonist [1] | Yeast Assay Agonist [2]
C[C@@H](O)[C@@H]1NC(=O)[C@H](CCCCN)NC(=O)[C@@H](Cc2c[nH]c3ccccc23)NC(=O)[C@H](Cc2ccc(O)cc2)NC(=O)[C@H](NC(=O)[C@@H](N)Cc2ccc([N+](=O)[O-])cc2)CSSC[C@@H](C(=O)N[C@H](Cc2ccc(O)cc2)C(N)=O)NC1=O | 4 | -
C[C@@H](O)[C@@H]1NC(=O)[C@H](CCCCN)NC(=O)[C@@H](Cc2c[nH]c3ccccc23)NC(=O)[C@H](Cc2ccc(O)cc2)NC(=O)[C@H](NC(=O)[C@@H](N)Cc2ccc([N+](=O)[O-])cc2)CSSC[C@@H](C(=O)N[C@@H](Cc2ccc(O)cc2)C(N)=O)NC1=O | 5 | -
CC(=O)N[C@@H](Cc1ccc([N+](=O)[O-])cc1)C(=O)N[C@@H]1CSSC[C@@H](C(=O)N[C@H](Cc2ccc(O)cc2)C(N)=O)NC(=O)[C@H]([C@@H](C)O)NC(=O)[C@H](CCCCN)NC(=O)[C@@H](Cc2c[nH]c3ccccc23)NC(=O)[C@H](Cc2ccc(O)cc2)NC1=O | 4 | -
CC(=O)N[C@@H](Cc1ccc2ccccc2c1)C(=O)N[C@@H]1CSSC[C@@H](C(=O)N[C@@H](Cc2ccc(O)cc2)C(N)=O)NC(=O)[C@H]([C@@H](C)O)NC(=O)[C@H](CCCCN)NC(=O)[C@@H](Cc2c[nH]c3ccccc23)NC(=O)[C@H](Cc2ccc(O)cc2)NC1=O (Ac-[2Nal][dC]Y[dW]KTCY-NH2; disulfide 2-7 (inferred)) | 1 | -
CC(C)[C@@H]1NC(=O)[C@H](CCCCN)NC(=O)[C@@H](Cc2c[nH]c3ccccc23)NC(=O)[C@H](Cc2ccc(O)cc2)NC(=O)[C@H](NC(=O)[C@@H](N)Cc2ccc3ccccc3c2)CSSC[C@@H](C(=O)N[C@@H](Cc2ccc(O)cc2)C(N)=O)NC1=O (H-[2Nal][dC]Y[dW]KVCY-NH2; disulfide 2-7; N-terminus assumed) | 3 | -
CN[C@@H](Cc1ccc([N+](=O)[O-])cc1)C(=O)N[C@@H]1CSSC[C@@H](C(=O)N[C@@H](Cc2ccc(O)cc2)C(N)=O)NC(=O)[C@H](C(C)C)NC(=O)[C@H](CCCCN)NC(=O)[C@@H](Cc2c[nH]c3ccccc23)NC(=O)[C@H](Cc2ccc(O)cc2)NC1=O (H-[NMePhe(4-NO2)][dC]Y[dW]KVCY-NH2; disulfide 2-7 (inferred)) | 5 | -
CC(C)[C@@H]1NC(=O)[C@H](CCCCN)NC(=O)[C@@H](Cc2c[nH]c3ccccc23)NC(=O)[C@H](Cc2ccc(O)cc2)NC(=O)[C@H](NC(=O)[C@@H](N)Cc2ccc([N+](=O)[O-])cc2)CSSC[C@@H](C(=O)N[C@@H](Cc2ccc(O)cc2)C(N)=O)NC1=O (H-[Phe(4-NO2)][dC]Y[dW]KVCY-NH2; disulfide 2-7 (inferred)) | 5 | -
CC(C)[C@@H]1NC(=O)[C@H](CCCCN)NC(=O)[C@@H](Cc2c[nH]c3ccccc23)NC(=O)[C@H](Cc2ccc(O)cc2)NC(=O)[C@H](NC(=O)[C@@H](N)Cc2ccc([N+](=O)[O-])cc2)CSSC[C@@H](C(=O)N[C@@H](Cc2ccc3ccccc3c2)C(N)=O)NC1=O (H-[Phe(4-NO2)][dC]Y[dW]KVC[2Nal]-NH2; disulfide 2-7 (inferred)) | 2 | -
CC[C@@H]1NC(=O)[C@H](CCCCN)NC(=O)[C@@H](Cc2c[nH]c3ccccc23)NC(=O)[C@H](Cc2ccc(O)cc2)NC(=O)[C@H](NC(=O)[C@@H](N)Cc2ccc([N+](=O)[O-])cc2)CSSC[C@@H](C(=O)N[C@@H](Cc2ccc(O)cc2)C(N)=O)NC1=O (H-[Phe(4-NO2)][dC]Y[dW]K[Abu]CY-NH2; disulfide 2-7 (inferred)) | 3 | -
CC(C)[C@@H]1NC(=O)[C@H](CCCCN)NC(=O)[C@@H](Cc2c[nH]c3ccccc23)NC(=O)[C@H](Cc2ccc(O)cc2)NC(=O)[C@H](NC(=O)[C@H](N)Cc2ccc3ccccc3c2)CSSC[C@@H](C(=O)N[C@@H](Cc2ccc(O)cc2)C(N)=O)NC1=O (H-[d2Nal][dC]Y[dW]KVCY-NH2; disulfide 2-7) | 2 | -

Source: patent publication EP0791603A2, “Pure somatostatin antagonist and methods of use thereof” (American Cyanamid Company, priority 1996, dated 1997)
